Measured values published in patent US20220177459A1, “AROMATIC AMINE COMPOUND AND USE THEREOF IN PREPARATION OF AR AND BRD4 DUAL INHIBITORS AND REGULATORS” (HINOVA PHARMACEUTICALS INC., priority 2019, published 2022).

The molecules below were run on LNCaP/AR cells (assay: Inhibition of proliferation of prostate cancer cells LNCaP/AR (CCK-8)). Conditions: 144 h, 6 days culture, CCK-8, OD 450 nm, read-out: IC50 (μM), inhibitory activity on prostate cancer cell LNCap/AR.
Format: cell-based
Description: 1. Biological determination of the inhibitory effect on the proliferation of prostate cancer cells LNCaP/AR
Cell culture medium: RIPM1640 media, 10% FBS, 1% Pen Strep;
(§1) 1) LNCaP/AR cells were subcultured in cell culture medium, and the cells in good growth condition were seeded in a 96-well plate, with 80 μL per well (i.e. 1000 cells per well), and cultured overnight in a 37° C., 5% CO2 cell incubator.
2) The drug was prepared with dimethylsulfoxide (DMSO) as a 10 mM stock solution.
(§2) Immediately before use, the stock solution was diluted 3 times with DMSO, and then diluted as a 3-fold gradient to obtain 9 concentration gradients. Then, the compound of each concentration was diluted 200 times with the culture media (to ensure that the DMSO concentration in the culture system was 0.1%), and two multiple holes were set for each concentration. 20 μL of the diluted compound was added to the cell culture well (with a final concentration of 10 μM, 3.3 μM, 1.1 μM . . . ), and then shook gently to mix. In addition, three negative control wells with only cells and three blank control wells with only culture medium were included (6 wells being each added with DMSO diluted 200 times with 20 μL culture medium).
(§3) 1) After culturing for 6 days, 10 μL of CCK-8 was added to each well and continued culturing for 1 hour in a 37° C., 5% CO2 cell incubator.
(§4) 2) The absorbance (OD value) was measured at 450 nm using a multifunctional microplate reader.
(§5) 3) The data were analyzed by the Dose-response-inhibition equation in the software GraphPad Prism5, and the IC50 value was obtained.

| IC50 | SMILES |
| --- | --- |
| 3.98 µM | CCN(c1ccc(-n2ccnc2)cc1)c1cc(-c2c(C)n[nH]c2C)ccc1C [Compound 21] |
| 6.42 µM | CCN(c1ccc(-n2ccnc2)cc1)c1cc(-c2c(C)nn(CCO)c2C)ccc1C [Compound 23] |
| 1.25 µM | CCN(c1ccc(-n2ccnc2)cc1)c1cc(-c2c(C)noc2C)ccc1C [Compound 25] |
| 1.2 µM | CCN(c1ccc(-n2cncn2)cc1)c1cc(-c2c(C)noc2C)ccc1C [Compound 35] |
| 2.79 µM | CCN(c1ccc(-n2cnc(Cl)c2)c(Br)c1)c1cc(-c2c(C)noc2C)ccc1C [Compound 43] |
| 3.3 µM | CCN(c1ccc(-n2ccnc2)cc1)c1cc2c(C)noc2cc1C [Compound 47] |
| 3.7 µM | CCN(c1ccc(-n2ccnc2)cc1)c1cc2onc(C)c2cc1C [Compound 48] |
| 2.38 µM | CCN(c1ccc(-n2cnc(C)c2)c(Br)c1)c1cc(-c2c(C)noc2C)ccc1C [Compound 57] |
| 2.32 µM | Cc1ccc(-c2c(C)noc2C)cc1N(CCO)c1ccc(-n2ccnc2)c(Br)c1 [Compound 58] |
| 2.03 µM | CCN(c1ccc(-n2ccnc2)c(Br)c1)c1cc(-c2c(C)noc2C)cnc1C [Compound 67] |
| 3.23 µM | CCN(c1ccc(-c2cc(C)[nH]n2)cc1)c1cc(-c2c(C)noc2C)ccc1C [Compound 97, 5-(3,5-dimethylisoxazol-4-)-N-ethyl-2-methyl-N-(4-(5-methyl-1H-pyrazol-3-yl)phenyl)aniline] |
| 4.77 µM | CCN(c1ccc(-c2csc(N)n2)cc1)c1cc(-c2c(C)noc2C)ccc1C [Compound 98, 4-(4-((5-(3,5-dimethylisoxazol-4-)-2-methylphenyl)(ethyl)amino)phenyl)thiazol-2-amine] |
| 0.4 µM | CCN(c1ccc([N+](=O)[O-])cc1)c1cc(-c2c(C)noc2C)ccc1C [Compound 99] |
| 0.7 µM | CCN(c1ccc(N)cc1)c1cc(-c2c(C)noc2C)ccc1C [Compound 100, N-1-(5-(3,5-dimethylisoxazol-4-yl)-2-methylphenyl) N1-ethylbenzene-1,4-diamine] |
| 1.45 µM | CCN(c1ccc(-c2cn(C)nn2)cc1)c1cc(-c2c(C)noc2C)ccc1C [Compound 102, 5-(3,5-dimethylisoxazol-4-yl)-N-ethyl-2-methyl-N-(4-(1-methyl-1H-1,2,3-triazol-4-yl)phenyl)aniline] |
| 0.71 µM | CCN(c1ccc(-c2ncon2)cc1)c1cc(-c2c(C)noc2C)ccc1C [Compound 105, N-(4-(1,2,4-oxadiazole-3-yl)phenyl)-5-(3,5-dimethylisoxazol-4-yl)-N-ethyl-2-methylaniline] |
| 0.7 µM | CCN(c1ccc(-c2cncn2C)cc1)c1cc(-c2c(C)noc2C)ccc1C [Compound 106] |

| IC50 | SMILES |
| --- | --- |
| 3.67 µM | CCN(c1ccc(-c2cnc[nH]2)cc1)c1cc(-c2c(C)noc2C)ccc1C [Compound 107] |
| 0.76 µM | CCN(c1ccc(-c2csnn2)cc1)c1cc(-c2c(C)noc2C)ccc1C [Compound 108, N-(4-(1,2,3-thiazol-4-yl)phenyl)-5-(3,5-dimethylisoxazol-4-yl)-N-ethyl-2-methylaniline] |
| 4.46 µM | CCN(c1ccc(OC(F)(F)F)cc1)c1cc(-c2c(C)noc2C)ccc1C [Compound 109] |
| 1.86 µM | CCN(c1ccc(C2(C#N)CCC2)cc1)c1cc(-c2c(C)noc2C)ccc1C [Compound 112] |
| 2.53 µM | CCN(c1ccc(S(C)(=O)=O)cc1)c1cc(-c2c(C)noc2C)ccc1C [Compound 113] |
| 0.89 µM | CCN(c1ccc2cn[nH]c2c1)c1cc(-c2c(C)noc2C)ccc1C [Compound 114] |
| 1.3 µM | CCN(c1ccc2nc[nH]c2c1)c1cc(-c2c(C)noc2C)ccc1C [Compound 115, N-(5-(3,5-dimethylisoxazol-4-yl)-2-methylphenyl) N-ethyl-1H-benzo[d]imidazole-6-amine] |
| 0.17 µM | Cc1ccc(-c2c(C)noc2C)cc1Nc1ccc(-c2c(C)noc2C)cc1 [Compound 119] |
| 3.03 µM | CCN(c1ccc(C(N)=O)cc1)c1cc(-c2c(C)noc2C)ccc1C [Compound 123] |
| 0.99 µM | CCN(c1ccc(-c2cn[nH]c2C)cc1)c1cc(-c2c(C)noc2C)ccc1C [Compound 126] |
| 1.13 µM | CCN(c1ccc(-c2nnco2)cc1)c1cc(-c2c(C)noc2C)ccc1C [Compound 129] |
| 1.16 µM | CCN(c1ccc(-c2nnc[nH]2)cc1)c1cc(-c2c(C)noc2C)ccc1C [Compound 130] |
| 0.88 µM | CCN(c1ccc(-c2c[nH]nn2)cc1)c1cc(-c2c(C)noc2C)ccc1C [Compound 131] |
| 2.54 µM | CCN(c1ccc2ncn(C)c2c1)c1cc(-c2c(C)noc2C)ccc1C [Compound 132] |
| 8.74 µM | CCN(c1ccc2[nH]ncc2c1)c1cc(-c2c(C)noc2C)ccc1C [Compound 133] |
| 0.89 µM | CCN(c1ccc(-c2ccon2)cc1)c1cc(-c2c(C)noc2C)ccc1C [Compound 134] |

| SMILES | IC50 |
| --- | --- |
| CCN(c1ccc(C#N)c(Cl)c1)c1cc(-c2c(C)n[nH]c2C)ccc1C [Compound 1] | 0.33 µM |
| CCN(c1ccc(C#N)c(Cl)c1)c1cc(-c2c(C)nn(CC)c2C)ccc1C [Compound 3] | 1.4 µM |
| CCN(c1ccc(C#N)c(Cl)c1)c1cc(-c2c(C)nn(C(C)C)c2C)ccc1C [Compound 4] | 1.4 µM |
| CCCn1nc(C)c(-c2ccc(C)c(N(CC)c3ccc(C#N)c(Cl)c3)c2)c1C [Compound 5] | 1.45 µM |
| Cc1ccc(-c2c(C)n[nH]c2C)cc1N(CCCCCO)c1ccc(C#N)c(Cl)c1 [Compound 6] | 3.67 µM |
| CCN(c1ccc(C#N)c(Cl)c1)c1cc(-c2[nH]ncc2C)ccc1C [Compound 7] | 2.19 µM |
| CCN(c1ccc(C#N)c(Cl)c1)c1cc(-c2c(C)noc2C)ccc1C [Compound 14] | 0.55 µM |
| CCN(c1ccc(C#N)c(C(F)(F)F)c1)c1cc(-c2c(C)noc2C)ccc1C [Compound 16] | 1.66 µM |

These molecules were tested on 22RV1 cells (assay: Inhibition of proliferation of other prostate cancer cells: 22RV1). Conditions: Homo sapiens, same method as LNCaP/AR.
Format: cell-based
Description: as §1, §2, §3, §4, §5
2. Biological determination of the inhibitory effect on the proliferation of other prostate cancer cells
The inhibitory activity of the compound according to the present invention on other drug-resistant prostate cancer cells was measured by the same method as described above, in which VCaP and 22RV1 cells were commercially available.

| IC50 | SMILES |
| --- | --- |
| 0.07 µM | CCN(c1ccc(OC)cc1)c1cc(-c2c(C)noc2C)ccc1C [Compound 101] |
| 0.63 µM | Cc1ccc(-c2c(C)noc2C)cc1Nc1ccc(Br)cc1 [Compound 120] |
| 5.64 µM | CCN(c1ccc(C(N)=O)cc1)c1cc(-c2c(C)noc2C)ccc1C [Compound 123] |
| 3.17 µM | CCN(c1ccc(-c2cn[nH]c2C)cc1)c1cc(-c2c(C)noc2C)ccc1C [Compound 126] |
| 9.79 µM | CCN(c1ccc(-c2nnco2)cc1)c1cc(-c2c(C)noc2C)ccc1C [Compound 129] |
| 6.06 µM | CCN(c1ccc(-c2ccon2)cc1)c1cc(-c2c(C)noc2C)ccc1C [Compound 134] |

Each molecule was assayed against T1, androgen receptor (AR) (Homo sapiens, UniProt P10275) (assay: Inhibitory activity on the function of androgen receptor (AR), luciferase reporter in transfected cells). Conditions: transfected with AR and pGL4.36, testosterone 2 nM, Steady-Glo.
T1 construct: host or cells: HEK293
T1 sequence (P10275 1-920): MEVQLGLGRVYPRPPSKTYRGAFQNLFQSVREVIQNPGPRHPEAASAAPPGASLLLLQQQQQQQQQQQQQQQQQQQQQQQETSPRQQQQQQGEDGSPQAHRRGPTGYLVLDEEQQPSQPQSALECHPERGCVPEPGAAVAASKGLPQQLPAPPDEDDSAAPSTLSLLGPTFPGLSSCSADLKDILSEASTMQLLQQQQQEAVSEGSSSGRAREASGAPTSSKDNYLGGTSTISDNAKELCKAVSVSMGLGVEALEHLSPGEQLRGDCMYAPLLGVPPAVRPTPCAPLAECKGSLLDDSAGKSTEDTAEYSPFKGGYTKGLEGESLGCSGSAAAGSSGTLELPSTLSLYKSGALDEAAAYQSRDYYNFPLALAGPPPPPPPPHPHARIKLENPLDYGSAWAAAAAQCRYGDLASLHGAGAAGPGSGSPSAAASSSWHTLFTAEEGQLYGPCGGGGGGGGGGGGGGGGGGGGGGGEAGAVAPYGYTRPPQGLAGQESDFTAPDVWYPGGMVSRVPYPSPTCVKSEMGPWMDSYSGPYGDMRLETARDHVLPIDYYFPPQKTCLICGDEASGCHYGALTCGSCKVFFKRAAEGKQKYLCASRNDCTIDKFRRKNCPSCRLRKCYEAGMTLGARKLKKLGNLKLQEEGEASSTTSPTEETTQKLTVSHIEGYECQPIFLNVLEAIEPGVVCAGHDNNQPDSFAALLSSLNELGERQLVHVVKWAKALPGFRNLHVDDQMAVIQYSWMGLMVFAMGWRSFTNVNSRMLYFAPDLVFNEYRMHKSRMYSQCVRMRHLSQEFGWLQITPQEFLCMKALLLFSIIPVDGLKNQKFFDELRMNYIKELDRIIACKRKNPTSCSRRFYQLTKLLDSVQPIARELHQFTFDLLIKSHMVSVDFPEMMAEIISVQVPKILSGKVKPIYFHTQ
Format: cell-based
Description: Experimental Example 2 the Inhibitory Activity of the Compound According to the Present Invention on the Function of Androgen Receptor (AR)
Androgen receptor clone (Origene, Cat. No. RC235415)
pGL4.36 vector (Promega, Cat. No. E1360)
1) The cell suspension was diluted with the culture medium for seeding cells to a concentration of 4.0×10^5 cells/ml, for plating and adding transfection reagents.
2) The diluted cell suspension was inoculated into a cell culture plate, with 100 μL per well, and the plate was placed in a cell incubator and cultured overnight.
3) The transfection reagent was prepared as 10 μL/well, and added into the cell culture plate after 15 min at room temperature, then the plate was placed in a cell incubator and cultured overnight.
4) The compound was diluted by a 3-fold gradient with TECAN sampler, to obtain 8 concentration gradients, and the final DMSO concentration was 0.25%. The diluted compound was cultured in a 37° C. incubator for 30 min.
5) 250 nL of testosterone at a final concentration of 2 nM was added to the control well with an […] sampler, placed in a cell incubator, and cultured overnight.
6) Steady-Glo was added at 100 μL/well to the cell culture plate, and then the plate was left at room temperature for 15 min, followed by reading on Envision.
The data were analyzed according to the formula % Effect=(Sample value−LC)/(HC−LC)*100, using XL-fit software (provided by Business Solutions Ltd., version number XL fit 5.0). The inhibition rate of each compound against androgen receptor (AR) was calculated, and the half-inhibitory concentration IC50 of each compound against androgen receptor (AR) was further calculated.

| IC50 | SMILES |
| --- | --- |
| 1.3 µM | CCN(c1ccc(-c2c(C)noc2C)cc1)c1cc(-c2c(C)noc2C)ccc1C [Compound 104] |
| 3.4 µM | CCN(c1ccc(-c2ccnn2C)cc1)c1cc(-c2c(C)noc2C)ccc1C [Compound 127] |

| SMILES | IC50 |
| --- | --- |
| CCN(c1ccc(C#N)c(Cl)c1)c1cc(-c2c(C)noc2C)ccc1C [Compound 14] | 1.5 µM |
